The record followed here is ChEMBL document CHEMBL1201862, “PubChem BioAssay data set” (2004).

Data set [1] deals with Cytochrome P450 2C19 (Homo sapiens, UniProt P33261). Kind of data set: Cytochrome panel assay with activity outcomes. Panel member name: p450-cyp2c19 Compounds with AC50 equal or less than 10 uM are considered active. The format is functional.
For data set [2], the target named is T1, Cytochrome P450 1A2 (Homo sapiens, UniProt P05177).
T1 sequence (P05177 whole entry): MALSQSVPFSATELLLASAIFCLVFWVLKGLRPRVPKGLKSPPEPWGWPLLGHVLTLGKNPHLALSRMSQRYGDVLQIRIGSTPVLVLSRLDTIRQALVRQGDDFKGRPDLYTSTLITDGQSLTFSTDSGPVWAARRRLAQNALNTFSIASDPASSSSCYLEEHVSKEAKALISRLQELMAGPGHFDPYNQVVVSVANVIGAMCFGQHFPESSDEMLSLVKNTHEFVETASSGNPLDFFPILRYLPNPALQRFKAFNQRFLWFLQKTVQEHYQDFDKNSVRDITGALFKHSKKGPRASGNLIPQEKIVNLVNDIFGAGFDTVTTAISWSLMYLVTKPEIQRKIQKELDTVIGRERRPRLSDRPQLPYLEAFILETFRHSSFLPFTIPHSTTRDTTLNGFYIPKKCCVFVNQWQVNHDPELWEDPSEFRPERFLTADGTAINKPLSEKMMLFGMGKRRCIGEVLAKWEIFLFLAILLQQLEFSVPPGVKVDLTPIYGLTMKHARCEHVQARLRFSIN

Data set [3] addresses Cytochrome P450 2C9 (Homo sapiens, UniProt P11712).
In data set [4] the target is Cytochrome P450 3A4 (Homo sapiens, UniProt P08684).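 Note: CYP3A4 tested as one member of a cytochrome P450 panel screen.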
Sequence of Cytochrome P450 3A4 (P08684 whole entry): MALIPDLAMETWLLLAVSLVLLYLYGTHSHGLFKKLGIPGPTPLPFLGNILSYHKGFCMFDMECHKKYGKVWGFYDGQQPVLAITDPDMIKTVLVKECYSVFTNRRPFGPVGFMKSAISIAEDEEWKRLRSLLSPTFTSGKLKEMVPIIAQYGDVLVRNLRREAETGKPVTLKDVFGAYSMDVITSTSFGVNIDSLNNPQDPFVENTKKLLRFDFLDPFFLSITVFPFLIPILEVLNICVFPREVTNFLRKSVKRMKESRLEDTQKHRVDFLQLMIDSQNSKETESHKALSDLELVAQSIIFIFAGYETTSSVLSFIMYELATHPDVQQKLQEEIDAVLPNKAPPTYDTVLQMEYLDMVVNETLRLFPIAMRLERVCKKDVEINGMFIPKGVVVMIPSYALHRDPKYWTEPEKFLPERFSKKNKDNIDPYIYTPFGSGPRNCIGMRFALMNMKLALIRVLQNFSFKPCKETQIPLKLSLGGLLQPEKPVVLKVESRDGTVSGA
Data set [5] is described as follows: cells. The format is functional.
Data set [6] is described as follows: control 3'UTR Renilla luciferase suppression, dose response, counter-screen for Shn3 inhibitor project, cell-based, Clone20-Shn3RL, cherry-picked (AID 624133). It is filed as functional. In general terms: The purpose of a counterscreen is to sort out artefacts and off-target activity.
Data set [7] has as its target FAD-linked sulfhydryl oxidase ALR (Homo sapiens, UniProt P55789). As to the kind of experiment: inhibitors of human ALR sulfhydryl oxidase, dose response, biochemical, H2O2 detection, luminescence, cherry-pick (AID 493248).
Data set [8] is described as follows: HEp-2 cell cytotoxicity, dose response, cytotoxicity control for RSV inhibitor project, HTS (AID 2410). It is filed as functional. As to conditions: human respiratory syncytial virus.
The nature of data set [9]: Luminescence Cell-Based Dose Response HTS to Identify Inhibitors of 5'UTR Stem-Loop Driven Prion Protein mRNA Translation in H4 Neuroglioblastoma Cells. [Related pubchem assays: 1827 (Project Summary), 1813 (Primary HTS)]. It is filed as functional.
Data set [10] in a line: inhibitors of SNCA 5'UTR-driven reporter translation, confirmation, H4 neuroglioma cells, luminescence (AID 1988). The format is functional, cell-based.
Data set [11] is described as follows: inhibitors of firefly luciferase expression or activity, dose response, H4 neuroglioma cells, luminescence (AID 1990). It is filed as functional, cell-based.
For data set [12], the target named is T2, Heat shock factor protein 1 (Mus musculus, UniProt P38532).
T2 sequence (P38532 whole entry): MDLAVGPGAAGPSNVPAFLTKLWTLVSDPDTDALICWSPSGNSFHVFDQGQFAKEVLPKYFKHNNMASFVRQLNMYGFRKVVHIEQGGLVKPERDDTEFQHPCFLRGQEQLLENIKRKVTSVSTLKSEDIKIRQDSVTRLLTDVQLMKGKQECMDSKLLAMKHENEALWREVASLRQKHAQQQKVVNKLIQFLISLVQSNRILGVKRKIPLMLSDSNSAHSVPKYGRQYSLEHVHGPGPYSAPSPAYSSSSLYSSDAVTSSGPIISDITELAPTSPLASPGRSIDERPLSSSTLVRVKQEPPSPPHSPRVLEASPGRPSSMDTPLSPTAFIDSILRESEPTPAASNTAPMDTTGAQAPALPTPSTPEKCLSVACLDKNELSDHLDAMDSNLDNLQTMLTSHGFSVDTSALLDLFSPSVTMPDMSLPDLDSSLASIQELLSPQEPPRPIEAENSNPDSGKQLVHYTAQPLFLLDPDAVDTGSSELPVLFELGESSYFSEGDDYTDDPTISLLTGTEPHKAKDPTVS
Kind of data set: inhibition of MG132-induced HSE-luciferase signal, confirmation, cell-based, NIH3T3, luminescence, dose retest (AID 2382).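 Note: NIH3T3 fibroblasts with HSF1-driven luciferase reporter stressed by proteasome inhibitor MG132; luminescence from HSF1-driven luciferase expression after 8 hours of MG132 stress.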 The format is functional.

Data set [13] concerns the target T3, RNA-binding protein pos-1 (Caenorhabditis elegans, UniProt G5EF15).
T3 sequence (G5EF15 whole entry): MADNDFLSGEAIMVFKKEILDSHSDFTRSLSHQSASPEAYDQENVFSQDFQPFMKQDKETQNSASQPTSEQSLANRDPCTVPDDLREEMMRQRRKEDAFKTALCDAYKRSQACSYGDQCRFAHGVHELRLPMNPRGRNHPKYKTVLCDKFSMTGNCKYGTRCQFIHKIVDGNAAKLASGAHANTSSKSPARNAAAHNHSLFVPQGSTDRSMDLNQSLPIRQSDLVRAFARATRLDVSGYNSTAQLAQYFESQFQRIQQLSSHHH
Kind of data set: inhibitors of POS-1/mex-3 RNA binding, dose response, biochemical, fluorescence polarization (AID 1964).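 Note: purified POS-1 fused to maltose binding protein made in E. coli; potency of compounds blocking POS-1 binding to fluorescent RNA.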

The target of data set [14] is T4, Corticotropin-releasing factor receptor 2/Corticotropin-releasing factor-binding protein (Homo sapiens, UniProt P24387+Q13324).
T4 sequence (Q13324 whole entry): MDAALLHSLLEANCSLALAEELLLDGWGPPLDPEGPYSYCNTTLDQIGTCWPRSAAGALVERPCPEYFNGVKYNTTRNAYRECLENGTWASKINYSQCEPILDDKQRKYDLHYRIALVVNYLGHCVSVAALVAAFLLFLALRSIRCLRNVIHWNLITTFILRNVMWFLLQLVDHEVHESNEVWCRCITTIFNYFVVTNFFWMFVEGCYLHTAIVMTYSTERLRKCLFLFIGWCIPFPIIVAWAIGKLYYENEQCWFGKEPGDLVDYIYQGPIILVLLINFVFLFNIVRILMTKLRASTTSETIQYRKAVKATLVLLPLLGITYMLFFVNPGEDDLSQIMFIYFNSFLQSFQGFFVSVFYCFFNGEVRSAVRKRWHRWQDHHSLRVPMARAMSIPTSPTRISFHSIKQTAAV
T4 sequence (P24387 whole entry): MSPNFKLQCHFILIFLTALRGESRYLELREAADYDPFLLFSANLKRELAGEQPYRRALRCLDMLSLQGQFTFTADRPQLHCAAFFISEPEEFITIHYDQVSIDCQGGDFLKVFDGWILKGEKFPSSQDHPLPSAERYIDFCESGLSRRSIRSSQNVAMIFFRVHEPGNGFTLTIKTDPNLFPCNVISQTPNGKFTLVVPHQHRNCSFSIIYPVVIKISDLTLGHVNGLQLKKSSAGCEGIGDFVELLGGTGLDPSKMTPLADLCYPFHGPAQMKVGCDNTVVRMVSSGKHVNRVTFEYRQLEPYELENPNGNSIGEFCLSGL
As to the kind of experiment: activators of CRF receptor 2 with binding protein – uHTS hits, confirmation (AID 602473). The format is functional. The note with it: read-out: EC50_Mean.

The target in data set [15] is T5, Zinc finger protein mex-5 (Caenorhabditis elegans, UniProt Q9XUB2).
T5 sequence (Q9XUB2 whole entry): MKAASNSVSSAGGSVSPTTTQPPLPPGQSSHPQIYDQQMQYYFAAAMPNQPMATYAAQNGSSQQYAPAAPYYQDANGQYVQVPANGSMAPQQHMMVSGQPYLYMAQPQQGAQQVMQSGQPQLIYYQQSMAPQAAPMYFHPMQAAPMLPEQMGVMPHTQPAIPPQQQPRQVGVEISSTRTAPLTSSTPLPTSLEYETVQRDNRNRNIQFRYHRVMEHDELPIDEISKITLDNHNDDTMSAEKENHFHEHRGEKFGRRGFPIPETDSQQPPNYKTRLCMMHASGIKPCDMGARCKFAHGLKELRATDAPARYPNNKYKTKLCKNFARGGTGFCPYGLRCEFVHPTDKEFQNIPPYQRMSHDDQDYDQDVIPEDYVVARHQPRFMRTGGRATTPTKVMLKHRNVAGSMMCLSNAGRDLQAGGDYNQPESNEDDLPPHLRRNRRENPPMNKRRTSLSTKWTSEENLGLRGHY
As to the kind of experiment: MEX-5/TCR-2 RNA interaction inhibitors, dose response, biochemical, C. elegans, fluorescence polarization (AID 1960). A general note: Fluorescence polarisation rises when a labelled molecule tumbles more slowly, as on binding a larger partner.

Several values for one entry are separate records, joined by “and”; a condition that tells them apart may be missing. Equal values may be shown once. Activity calls are given as the source filed them.

Sequence of FAD-linked sulfhydryl oxidase ALR (P55789 whole entry): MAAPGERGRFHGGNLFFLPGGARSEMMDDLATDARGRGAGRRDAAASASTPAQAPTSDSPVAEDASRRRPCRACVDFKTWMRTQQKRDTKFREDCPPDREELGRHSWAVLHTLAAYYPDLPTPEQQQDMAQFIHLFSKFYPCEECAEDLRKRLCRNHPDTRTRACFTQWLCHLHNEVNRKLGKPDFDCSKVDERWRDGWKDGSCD
Sequence of Cytochrome P450 2C9 (P11712 whole entry): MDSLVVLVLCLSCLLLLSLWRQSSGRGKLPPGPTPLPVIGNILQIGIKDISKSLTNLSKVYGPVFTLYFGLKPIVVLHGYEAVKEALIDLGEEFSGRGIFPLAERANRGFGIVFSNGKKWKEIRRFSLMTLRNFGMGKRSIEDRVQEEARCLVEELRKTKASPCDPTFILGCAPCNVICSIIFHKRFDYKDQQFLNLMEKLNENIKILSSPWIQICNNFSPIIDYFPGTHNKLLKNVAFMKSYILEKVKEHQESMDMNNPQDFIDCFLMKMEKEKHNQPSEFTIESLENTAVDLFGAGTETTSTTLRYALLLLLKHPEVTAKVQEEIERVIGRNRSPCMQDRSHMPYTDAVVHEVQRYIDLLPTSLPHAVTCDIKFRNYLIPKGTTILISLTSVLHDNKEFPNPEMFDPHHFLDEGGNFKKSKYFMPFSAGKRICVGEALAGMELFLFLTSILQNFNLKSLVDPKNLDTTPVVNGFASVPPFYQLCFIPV
Sequence of Cytochrome P450 2C19 (P33261 whole entry): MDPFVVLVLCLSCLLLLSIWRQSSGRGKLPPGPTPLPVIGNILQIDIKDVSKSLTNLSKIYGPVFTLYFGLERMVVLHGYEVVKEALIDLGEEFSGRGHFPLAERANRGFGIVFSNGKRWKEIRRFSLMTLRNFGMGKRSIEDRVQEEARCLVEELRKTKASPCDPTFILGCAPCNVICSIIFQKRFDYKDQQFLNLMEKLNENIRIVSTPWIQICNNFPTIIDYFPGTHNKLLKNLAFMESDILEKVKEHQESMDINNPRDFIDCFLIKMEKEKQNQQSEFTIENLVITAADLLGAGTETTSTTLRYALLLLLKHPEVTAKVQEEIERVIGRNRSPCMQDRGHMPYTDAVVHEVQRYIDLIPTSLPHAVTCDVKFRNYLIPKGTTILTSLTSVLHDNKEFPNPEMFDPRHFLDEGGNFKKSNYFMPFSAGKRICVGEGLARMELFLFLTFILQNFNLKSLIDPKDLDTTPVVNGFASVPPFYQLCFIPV

What is called AC50 is the midpoint of the concentration-response curve, whichever way the signal moves. With `Cc1ccc(C(=O)NC(=S)N2CC(C)OC(C)C2)cc1[N+](=O)[O-]` (centres undefined), the half-maximal activity concentration (AC50) entry was “inconclusive” in [1], 15.8 µM (inconclusive) in data set [2], 14.1 µM (inconclusive) in [3] and 22.4 µM (inconclusive) in data set [4].

What is called IC50 is the point on the concentration scale where inhibition reaches its midpoint. In the case of `CSc1ccc(CNc2ncc(-c3cccc([N+](=O)[O-])c3)n2C)cc1`, the IC50 in data set [5] was 21.8 µM (active).

On to `C=CCNC(=O)/C(=C\c1ccc2c(c1)OCO2)NC(=O)c1ccc(Br)cc1`, for which the results for the AC50 in [2] and in data set [3] were 14.1 µM (inconclusive) and 5.62 µM (inconclusive), respectively.

For `O=C(CCc1ccccc1)NC1C2CC3CC(C2)CC1C3` (centres undefined), in [5], the IC50 was 18.6 µM (active).

`CC(C)N1CCN(Cc2c[nH]c3ccccc23)CC1CCO` (centres undefined): the concentration at half-maximal activity (AC50) in [6] was 28.6 µM (active).

Take `O=C(O)c1ccc(Sc2nnc(-c3cccc(Br)c3)o2)c([N+](=O)[O-])c1`: the half-maximal activity concentration (AC50) in data set [7] was 0.044 µM (active).

One may read the CC50 as the concentration that lowers cell viability or growth by half. Turning to `COc1ccc(N(C)C(=O)c2cc3c(s2)-c2ccccc2OC3)c(OC)c1`, the cytotoxic concentration (CC50) in data set [8] is 48.3 µM (active).

Turning to `CN1CCC(c2c[nH]c3ccc(O)cc23)CC1`, the AC50 is 31.6 µM (inconclusive) in data set [2]; 15.8 µM (inconclusive) and 31.6 µM (inconclusive) in data set [4].

With `Cc1cc(C)nc(Nc2n[nH]c(-c3ccc(N)cc3)n2)n1`, in [7], the AC50 is 0.311 µM (active).

For the compound `O=C(CCN1C[C@H]2CC[C@H](CC2)C1)c1cccs1`, the AC50 in data set [2] is 5.01 µM (inconclusive).

`N#CC1CCCc2c1[nH]c1ccc([N+](=O)[O-])cc21` (centres undefined): the EC50 in data set [9] was > 120 µM (not active); in data set [10], 24.5 µM (active); in data set [11] it was 11.7 µM (active). For the same compound, the CC50 in [8] is 27.8 µM (active).

For `COc1ccc(N2CCN(C(=O)Cc3ccc(C)cc3)CC2)cc1`, the concentration at half-maximal activity (AC50) in [7] is 5.48 µM (active).

For `Cn1c(=O)c(-c2cccs2)nc2cnc(N3CCOCC3)nc21`, in [2], the concentration at half-maximal activity (AC50) is 5.01 µM (inconclusive).

Turning to `CC(=O)Nc1ccc(S(=O)(=O)N2CCC(c3nc4cc(C)ccc4[nH]3)CC2)cc1`, the half-maximal cytotoxic concentration (CC50) in data set [8] is 15.4 µM (active).

Consider `NC(=NO)c1ccccc1N1CCC(Cc2ccccc2)CC1`, for which the AC50 in data set [7] was 27.4 µM (active).

Turning to `C=CCN1C[C@H](C)N([C@@H](c2ccccc2)c2ccc(C(=O)N(CC)CC)cc2)C[C@H]1C`, the half-maximal activity concentration (AC50) is 63.1 nM (inconclusive) in data set [1] (read-out: AC50), 31.6 µM (inconclusive) in data set [2], 31.6 µM (inconclusive) in data set [3] and 2.51 µM (inconclusive) in [4].

As for `CCOc1ccc(NC(=O)COC(=O)C2(C)CC2(Cl)Cl)c([N+](=O)[O-])c1` (centres undefined), in data set [5], the IC50 is 38.4 µM (active). Moreover, the EC50 in data set [12] is > 195 µM (not active).

In the case of `CCN(CC)CC(=O)Nc1ccc2c(c1)Nc1ccccc1CC2`, in data set [7], the half-maximal activity concentration (AC50) is 0.221 µM (active).

Consider `Nc1cccc(OCc2nc(N)nc(N)c2-c2ccc(Cl)cc2)c1`, for which the AC50 in data set [2] was 0.158 µM (inconclusive).

With `CC(CN1CCN(c2ccccc2)CC1)c1ccccc1` (centres undefined), the AC50 in [7] was 66.9 µM (active).

As to `Cc1ccc(/C(O)=C/c2nc3ccccc3oc2=O)cc1`, the EC50 in data set [13] is > 300 µM (inconclusive); in data set [14], 11.4 µM (active); in [15], > 300 µM (inconclusive). In data set [5], the concentration for half-maximal inhibition (IC50) is 4.72 µM (active).

On to `CCC/C=C(\CCC)C(NC(=O)c1ccc(C(F)(F)F)cc1)c1ccccc1` (centres undefined), for which the values for the AC50 in data set [2] and in data set [3] were 25.1 µM (inconclusive) and 3.16 µM (inconclusive), respectively.

Turning to `Cc1cc(NS(=O)(=O)c2ccccc2)c(C)c(Cl)c1O`, the CC50 in data set [8] is 8.98 µM (active).

On to `COc1cccc(COC(=O)CCNC(=O)c2ccc(Br)cc2)c1OC`, for which the IC50 in data set [5] is 15.4 µM (active).

On to `Cc1cc(C)n(CCC(=O)N2CCCC(Nc3ccc(F)cc3)C2)n1` (centres undefined), for which, in data set [7], the concentration at half-maximal activity (AC50) was 33.3 µM (active).

Take `Cc1ccc(S(=O)(=O)Oc2cc(S(=O)(=O)O)cc3cc(S(=O)(=O)O)cc(N)c23)cc1`: the AC50 in data set [2] was 2 µM (inconclusive).

Consider `CCn1c2ccccc2c2cnc(/N=C/N(C)C)c(C#N)c21`, for which, in data set [8], the CC50 is 37 µM (active).

As to `Sc1nnc(-c2ccccn2)n1/N=C/c1ccc(Br)s1`, the concentration at half-maximal activity (AC50) in data set [7] was 10.5 µM (active).
